Measured values taken from patent publication US20110014216A1, “Drug Transfer Based on Coenzyme A and Acyl Carrier Protein” (COVALYS B[…], priority 2007, published 2011).

System: fusion protein ACP-FRB
Assay: in vitro protein trimer formation with ACP-FRB, ACP synthase, SDS-PAGE
Format: biochemical
Conditions: FRB protein fused to ACP tag, ACP synthase enzyme, overnight incubation at 4° C., coomassie stained
Experimental: A solution of maleimide derivative (34) (1.4 mg, 1 eq, 1.3 μmol) in DMF (0.7 mL) is added to a solution of CoA-SH (3.5 mg, 3.3 eq, 4.3 μmol) in Tris buffer (pH 7.5, 100 μL). The reaction mixture is shaken overnight at 31° C. The solvent is removed under vacuum and the crude mixture is purified via preparative HPLC. The structural ability of compound (35) to trigger the formation of a protein trimer is confirmed by in vitro experiments using the fusion protein ACP-FRB. 12.5 μL of a 48.5 μM solution of FRB protein fused to the ACP tag (Covalys) is mixed with 0.5 μL of a 0.2 mM solution of compound (35), 2.5 μL of a solution of [500 mM Tris-HCl pH 7.5; 1500 mM NaCl; 100 mM MgCl2], 9.5 μL of double distilled water and 0.5 μl of ACP synthase enzyme (available from Covalys). Following overnight incubation at 4° C., 5 μL of a solution of 100 mM Tris-HCl pH 6.8; 2% SDS; 35% glycerol; 10 mM EDTA; 20 mM DTT is added. The mixture is boiled for 5 min at 95° C. After cooling to rt, 30 μL of this solution is loaded on a 4-20% linear gradient SDS-PAGE gel. After electrophoresis, the proteins are coomassie stained in gel to visualize protein trimer.

CCN(CC)c1ccc2nc3c4cc(OCC(=O)NC(COCCC(=O)NCCN5C(=O)CC(SCCNC(=O)CCNC(=O)[C@H](O)C(C)(C)COP(=O)([O-])OP(=O)([O-])OC[C@H]6O[C@@H](n7cnc8c(N)ncnc87)C(O)C6OP(=O)(O)O)C5=O)(COCCC(=O)NCCN5C(=O)CC(SCCNC(=O)CCNC(=O)[C@H](O)C(C)(C)COP(=O)([O-])OP(=O)([O-])OC[C@H]6O[C@@H](n7cnc8c(N)ncnc87)C(O)C6OP(=O)(O)O)C5=O)COCCC(=O)NCCN5C(=O)CC(SCCNC(=O)CCNC(=O)[C@H](O)C(C)(C)COP(=O)([O-])OP(=O)([O-])OC[C@H]6O[C@@H](n7cnc8c(N)ncnc87)C(O)C6OP(=O)(O)O)C5=O)ccc4c(=O)cc-3oc2c1.[Na+].[Na+].[Na+].[Na+].[Na+].[Na+] (stereo partly shown) [Compound 35, N-Tris-{[2-(2-(2-(CoA-S)-succinimido)ethylaminocarbonyl)ethoxy]-methyl}methyl nile red-oxyacetamide]
structural ability to trigger the formation of a protein trimer: confirmed
